Experimental data as given in patent US20200246308A1, “SYNERGISTIC COMBINATIONS OF UROLITHINS A AND B FOR IMPROVING COGNITIVE CAPACITY OR COGNITIVE FUNCTION” (Natreon, Inc., priority 2018, published 2020).
“Also recorded” adds a separate entry of the source.

What was measured:
[1] = system: scopolamine induced dementia in rats; assay: Y-maze test, scopolamine induced dementia in rats (Study 2); type: in vivo, Charles Foster male albino rats; conditions: 50 mg dose orally once daily; for Coping behavior to novel environment (% time in novel arm), trial-2 / Curiosity behavior (total number of entries), trial-1 and trial-2: scopolamine treated rats; for % known and novel arm entries (spatial recognition memory): vs scopolamine treated rats
Description: 2.2. Animal subjects. Inbred Charles Foster male albino rats (130-180 g) were obtained from the Central Animal House, Institute of Medical Sciences (IMS), Banaras Hindu University (BHU), Varanasi, Uttar Pradesh, India. These were certified to be pathogen free and were randomly distributed into different experimental groups. The rats were kept in the departmental animal house at an ambient temperature of 25±1° C. and 45-55% RH, with a 12-h light/dark cycle (lights on 7:00-19:00 h). The animals had free access to standard pellet chow and tap water ad libitum. Experiments were conducted between 9:00 and 14:00 h. The behavioral testing was done during the light phase. Animals were housed in groups and acclimatized for at least one week before using them for experiments. Animals were transported in cage covered by dark cloth to the experimental room. The experimental procedures were in compliance with National Institutes of Health Guide for Care and Use of Laboratory Animals.
The rats were pretreated orally for seven days through an orogastric tube with experimental drugs (10, 25 and 50 mg/kg once daily) suspended in 0.3% carboxymethyl cellulose (CMC). The treatment was continued until the end of the experiment procedures (Singh, G. K., Garabadu, D., Muruganadam, A. V., Joshi, V. K., Krishnamurthy, S., “Antidepressant activity of Asparagus racemosus in animal models of depression,” Pharmacol. Biochem. Behav. (2009) 91(3):283-90). Scopolamine was dissolved in water for injection and administered on day 7 after one hour of drug treatment administration. Donepezil (5 mg/kg; i.p.)
was used as standard drug. On day 8 the behavioral experiment was performed. The animals were sacrificed and hippocampus was micro-dissected using the coordinates of the rat brain atlas. All control group animals were treated with the 0.3 ml of vehicle (0.3% CMC suspension) equal to the volume of experimental drugs (Ohj a, R., et al., “Asparagus recemosus enhances memory and protects against amnesia in rodent models,” Brain Cogn. (2010) October; 74(1): 1-9).
Spatial recognition memory, general exploratory behavior, and anxiety-like behavior were assessed by the Y-maze test. Y-maze consists of three similar arms of dimension 50 cm long, 16 cm wide and 32 cm high. In the first trial, the novel arm was blocked and the animal was allowed to move for 15 min in other two arms. In the second trial, the novel arm was opened and the animal was allowed to move for 5 min in all three arms after 4 h of the first trial. The total number of entries in all arms (for 5 min of trial-1 and trial-2) is indicative of general exploration attitude (curiosity). The % entries in known and novel arms for the 5 min period of trial 2 were considered as a measure of spatial recognition memory. Coping strategy to the novel environment was estimated by the percentage of the ratio of time spent in the novel arm to time spent in all arms and in the center of the apparatus during trial 2. The decrease in the coping behavior to the novel environment was considered as an increase in anxiety-like behavior (Krishnamurthy, S., et al., “Risperidone ameliorates post-traumatic stress disorder-like symptoms in modified stress re-stress model,” Neuropharmacology (2013) 75:62-77).

Human recombinant AChE = target: T1, Human recombinant AChE (Homo sapiens, UniProt P22303); assay: In-vitro human recombinant AChE inhibition assay, Amplex Red kit method; type: biochemical; conditions: Table 11
T1 construct: purchased Sigma Aldrich
T1 sequence (P22303 32-614): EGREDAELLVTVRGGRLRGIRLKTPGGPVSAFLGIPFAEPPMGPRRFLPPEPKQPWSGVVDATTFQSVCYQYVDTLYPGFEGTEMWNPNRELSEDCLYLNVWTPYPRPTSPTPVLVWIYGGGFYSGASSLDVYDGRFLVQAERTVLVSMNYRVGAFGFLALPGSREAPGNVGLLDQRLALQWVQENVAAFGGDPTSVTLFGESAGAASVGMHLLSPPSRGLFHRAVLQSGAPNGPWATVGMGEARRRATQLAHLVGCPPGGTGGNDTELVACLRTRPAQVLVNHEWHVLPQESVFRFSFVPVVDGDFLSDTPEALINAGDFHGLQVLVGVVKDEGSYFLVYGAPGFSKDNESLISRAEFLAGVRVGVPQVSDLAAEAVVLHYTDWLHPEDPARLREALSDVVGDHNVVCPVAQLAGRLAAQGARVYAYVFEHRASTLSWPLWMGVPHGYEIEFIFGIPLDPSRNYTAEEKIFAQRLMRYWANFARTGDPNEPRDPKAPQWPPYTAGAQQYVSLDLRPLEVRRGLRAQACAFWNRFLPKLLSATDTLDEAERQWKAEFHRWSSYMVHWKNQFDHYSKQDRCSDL
Description: In-vitro human recombinant AChE inhibition assay by Amplex Red kit method: The anticholinesterase activity of experimental drugs was measured by using Amplex red assay kit (Molecular Probes, Inc., USA). Fluorescence assay used for the screen of Human AChE activity in the presence of each experimental drug from a commercially available kit (Amplex Red, Invitrogen, Thermo Fisher Scientific, Waltham, Mass.). Acetylcholine, the product of AChE catalysis, was converted to a fluorescent called resorufin by the addition of a series of kit enzymes, including Choline oxidase (CO), horseradish peroxidase (HRP), and the fluorogenic substrate Amplex Red. As the fluorescent molecule resorufin is dependent on acetylcholine production and acetylcholine production is the product of AChE catalysis, the rate of change in fluorescence is a measurement of AChE activity. […] The following procedure is designed for use with a fluorescence multi-well plate scanner. […]
Positive control wells, representing 100% Human recombinant AChE activity (0% human-AChE inhibition), contained, Acetylcholine, and Amplex Red solution. […] Fluorescence measurements were taken at baseline (immediately after substrate was added to each well), and after a 60-minute incubation at 37° C. The fluorescence micro-plate reader was measured using excitation in the range of 530-560 nm and emission detected at 590 nm. […]

[2] = system: scopolamine induced amnesic rat model; assay: Y-maze test, scopolamine induced amnesic rat model (Example 9A); type: in vivo, Male Wistar rats; conditions: scopolamine 1 mg/kg i.p.; for Curiosity behavior (total arm entries), trial-1 and trial-2 / Spatial recognition memory (known vs novel arm entries %), trial-2: p.o. 7 days: B 50, A 50, B:A 10:50 and 50:50 mg/kg; for Curiosity behavior (total arm entries), trial-1 and trial-2: Shilajit 25 mg/kg b.i.d; for Coping behavior to novel environment (% time in novel arm), trial-2: p.o. 7 days: B 50, A 50, B:A 10:50 and 50:50, Shilajit 50 mg/kg
Description: The experiment was conducted in accordance with the Principles of laboratory animal care. Male Wistar rats (200-250 g) were purchased from the Central Animal House, Institute of Medical Sciences, Banaras Hindu University (BHU), Varanasi, India. Experiments on animals were approved by the Institutional Animal Ethics Committee of BHU, Varanasi, India. The animals were housed in polypropylene cages under controlled environmental conditions of temperature of 25±1° C. and 45-55% relative humidity and a 12:12 h light/dark cycle. The experimental animals had free access to commercial rat feed and water ad libitum during the experiment. Animals were acclimatized for at least one week before using them for experiments and exposed only once to the experiment.
Rats were randomly allocated into eight study groups containing six in each group (n=6), as follows:
Drug solution was freshly prepared in 0.3% CMC and administered by oral gavage once a day, for a period of 7 days. Briefly, the whole experiment was conducted for 8 days. Scopolamine (1 mg/kg), a muscarinic receptor antagonist, was dissolved in normal saline (0.9% NaCl) and administered intraperitoneally 1 h after drugs administration on seventh day.
Assessment of short term memory by Y maze test paradigm. The Y-maze test was performed essentially to assess spatial recognition memory, general exploratory behavior and anxiety-like behavior by following the standard protocol (Dellu, F., Mayo, W., Cherkaoui, J., Le Moal, M., Simon, H., “A two-trial memory task with automated recording: study in young and aged rats,” Brain Res. (1992) 588: 132-139). The Y-maze apparatus consists of three identical arms (50 cm long, 16 cm wide and 32 cm high) at 120° angles to each other, radiating out from a central point. Visual cues made from colored construction paper and laboratory glassware were placed around the perimeter of the maze and above the top of the black plexiglass sides and these cues were not repeated for each test to maintain novelty to the animals. The novel arm of the Y-maze was blocked and rats were allowed to visit the other two arms of the maze for 15 min. Four hours after the first phase, animals had free access to all three arms for 5 min. The number of entries in each arm was recorded for a 5-min period. The dependent variables such as the total number of entries in all arms (for the 5 min of trial 1 and 2), the % entries in known and novel arms for the 5 min period of trial 2 and the percentage of ratio of time spent in novel arm to time spent in all the arms and in the center of the apparatus during trial 2 were measured. The total number of entries in all arms (for the 5 min of trial 1 and 2) is indicative of general exploration attitude (curiosity) and the % entries in known versus novel arm for the 5 min period of trial 2 is considered as a measure of arm discrimination (spatial recognition memory). Coping strategy or behavior to novel environment was estimated by the percentage of time spent in novel arm to time spent in all arms and in the center of the apparatus during trial 2. The decrease in the coping behavior to novel environment was considered as increase in anxiety-like behavior. An arm entry was counted when the head and two front paws were inside the arm, and duration of an arm visit was ended when the head and two front paws were outside the arm again.

[3] = system: cortical brain mitochondria; assay: Mitochondrial respiration and respiratory control ratio (RCR) of isolated brain cortex mitochondria after 21 days treatment; conditions: for Respiratory control ratio (RCR): old mice (18 to 20 month), 50 mg/kg p.o.; for Respiratory control ratio (RCR) / Mitochondrial respiration in all states: 21 days; for State II respiratory rate / Mitochondrial respiration in all states: 50 mg/kg; for Mitochondrial respiration in all states: young and old mice, vs respective normal control; for Respiratory rate at state V (complex I): FCCP
Description: Briefly the mitochondria were added to the chamber and respiratory states were evaluated by suitable substrates and inhibitors. Purified mitochondrial protein was suspended in respiration buffer in a final volume of 250 μL. State II respiration was initiated by addition of Pyruvate/Malate (P/M), with basal rate of respiration. […] State IV was measured by addition of oligomycin. The respiration returns to basal rate since the ATP synthase is shut down and no electrons are allowed to return to the matrix. The electron transport chain (ETC) continues only to maintain mitochondrial membrane potential due to loss of protons back into the matrix. State V was measured by addition of FCCP. This represents the maximum rate of respiration, causing uncoupling of the ETC to ATP synthesis, and allows protons to rush back into the matrix. Rotenone was then added to shut down complex I-driven respiration. State V (succinate) was determined by addition of succinate. This is the maximum rate of respiration via complex II, since FCCP is present in the system.

SMILES | Coping behavior to novel environment (% time in novel arm), trial-2 [1] | Curiosity behavior (total number of entries), trial-1 and trial-2 [1] | % known and novel arm entries (spatial recognition memory) [1] | IC50 (Human recombinant AChE) [µg/mL] | Curiosity behavior (total arm entries), trial-1 and trial-2 [2] | Spatial recognition memory (known vs novel arm entries %), trial-2 [2] | Coping behavior to novel environment (% time in novel arm), trial-2 [2] | Respiratory control ratio (RCR) ([3]; vs old control) | State II respiratory rate ([3]; old mice, vs old control) | Mitochondrial respiration in all states [3] | State II respiratory rate ([3]; young mice, vs young control) | Respiratory rate at state V (complex I) ([3]; young mice)
O=c1oc2cc(O)ccc2c2ccccc12 [Urolithin B, 3-hydroxy-dibenzo-alpha-pyrone] | attenuated the scopolamine-induced decrease in coping strategy | attenuated the scopolamine induced decrease in curiosity behavior | dose dependently reversed the % known and novel arm entries | 412.00 ± 28.28 | attenuated the scopolamine induced decrease in curiosity behavior | significantly reversed the scopolamine induced failed the discrimination behavior but not similar as to the vehicle group | attenuated the scopolamine-induced decrease in coping strategy to a novel environment but not similar to that vehicle group | significantly increased the RCR | found to be increased | significantly increased mitochondrial respiration | significant increases in respiratory rate | significantly found to be increased; also recorded: less effect
O=c1oc2cc(O)ccc2c2ccc(O)cc12 [Urolithin A, 3,8-dihydroxy-dibenzo-alpha-pyrone] | attenuated the scopolamine-induced decrease in coping strategy | attenuated the scopolamine induced decrease in curiosity behavior | dose dependently reversed the % known and novel arm entries | 528.00 ± 70.71 | attenuated the scopolamine induced decrease in curiosity behavior | significantly reversed the scopolamine induced failed the discrimination behavior but not similar as to the vehicle group | attenuated the scopolamine-induced decrease in coping strategy to a novel environment but not similar to that vehicle group | significantly increased the RCR | found to be increased | significantly increased mitochondrial respiration | significant increases in respiratory rate | significantly found to be increased
